According to ChEMBL document CHEMBL5316360, “Fatty Acid Conjugated Chalcones as Tubulin Polymerization Inhibitors: Design, Synthesis, QSAR, and Apoptotic and Antiproliferative Activity” (J Nat Prod, 2023):
pIC50: −log10 of the molar value. Values belong to the molecule of their own block, whether it stands above or below them.

Tests used:
[1] = molecular target: Tubulin (Homo sapiens) (UniProt P68371+Q9H4B7+P0DPH7+P68366+Q13509+Q71U36+P04350+Q3ZCM7+P07437+P68363+Q9BQE3+Q6PEY2+Q13885+Q9BVA1+Q9BUF5); test: Inhibition of tubulin polymerization in human MCF7 cells assessed as fold increase in tubulin inhibition incubated for 18 to 24 hrs by ELISA method; assay type: cell-based; settings: time 18-24 hrs
[2] = system: MCF7; test: Antiproliferative activity against human MCF7 cells assessed as inhibition of cell growth measured after 24 hrs by MTT assay; assay type: functional, cell-based; settings: MCF7, 24 h
[3] = system: A549; test: Antiproliferative activity against human A549 cells assessed as inhibition of cell growth measured after 24 hrs by MTT assay; assay type: functional, cell-based; settings: A549, 24 h
[4] = system: WI-38; test: Cytotoxicity against human WI-38 cells assessed as reduction in cell viability at 10 to 100 uM measured after 24 hrs by MTT assay; assay type: toxicity, cell-based; settings: wi-38, 24 h, dose 10-100 µM
[5] = molecular target: Tubulin; test: Inhibition of tubulin polymerization in human MCF7 cells incubated for 18 to 24 hrs by ELISA method; assay type: cell-based
[6] = system: Erythrocyte; test: Hemolytic activity in Albino rat RBC at 150 uM incubated for 15 mins by spectrophotometric analysis; assay type: toxicity, cell-based; settings: 0.25 h

fold change (FC) [1]: 2
pIC50 [2]: 5.54
pIC50 [3]: 5.49
SMILES: CCCCCCCCCC(=O)Nc1ccc(C(=O)/C=C/c2ccc(Cl)cc2)cc1
Activity [4]: Non-Toxic

fold change (FC) [1]: 2
SMILES: CCCCCCCCCC(=O)Nc1ccc(C(=O)/C=C/c2ccc(OC)cc2)cc1

pIC50 [3]: 6.19
SMILES: CCCCCCCCCC(=O)Nc1ccc(C(=O)/C=C/c2ccccc2)cc1
Activity [4]: Non-Toxic

fold change (FC) [1]: 2
pIC50 [2]: 5.59
pIC50 [3]: 5.68
SMILES: CCCCCCCCCC(=O)Nc1ccc(C(=O)/C=C/c2ccc(C)cc2)cc1
Activity [4]: Non-Toxic

Further lines, the molecule ahead of its results:

SMILES: CCCCCCCCCCCCCCCCCC(=O)Nc1ccc(C(=O)/C=C/c2ccccc2)cc1
pIC50 [5]: 6.10
Activity [4]: Non-Toxic

SMILES: CCCCCCCCCCCCCC(=O)Nc1ccc(C(=O)/C=C/c2ccccc2)cc1
Activity [4]: Non-Toxic

SMILES: CCCCCCCCCCCCCCCC(=O)Nc1ccc(C(=O)/C=C/c2ccc(Cl)cc2)cc1
Activity [6]: Non-Toxic

SMILES: CCCCCCCCCCCCCCCC(=O)Nc1ccc(C(=O)/C=C/c2ccccc2)cc1
Activity [4]: Non-Toxic

SMILES: CCCCCCCCCCCCCCCC(=O)Nc1ccc(C(=O)/C=C/c2ccc(OC)cc2)cc1
Activity [6]: Non-Toxic

SMILES: CCCCCCCCCCCCCCCC(=O)Nc1ccc(C(=O)/C=C/c2ccc(C)cc2)cc1
Activity [6]: Non-Toxic

SMILES: CCCCCCCC(=O)Nc1ccc(C(=O)/C=C/c2ccccc2)cc1
pIC50 [5]: 5.82
pIC50 [2]: 5.68
Activity [4]: Non-Toxic
